Reference: PMC11470957, “Principles of paralog-specific targeted protein degradation engaging the C-degron E3 KLHDC2” (Nature Communications, 2024)
Values joined by “and” are separate entries in the source; they are usually repeats but may differ in a detail not shown here. Equal entries are not always repeated.

Biological target: T1, KLHDC2 (Homo sapiens, UniProt Q9Y2U9)
T1 sequence (Q9Y2U9 1-406): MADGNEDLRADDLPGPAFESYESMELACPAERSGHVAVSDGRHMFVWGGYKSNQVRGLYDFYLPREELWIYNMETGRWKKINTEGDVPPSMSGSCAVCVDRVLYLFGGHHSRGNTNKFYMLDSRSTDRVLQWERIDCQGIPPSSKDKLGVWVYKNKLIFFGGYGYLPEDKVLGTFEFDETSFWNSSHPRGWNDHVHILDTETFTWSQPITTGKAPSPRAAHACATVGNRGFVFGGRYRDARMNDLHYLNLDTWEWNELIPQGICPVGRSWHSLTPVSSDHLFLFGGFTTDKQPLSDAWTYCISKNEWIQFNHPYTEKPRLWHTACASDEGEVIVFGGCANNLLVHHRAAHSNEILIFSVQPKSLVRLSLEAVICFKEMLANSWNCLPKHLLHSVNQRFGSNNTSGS
Assay: Western blot of KLHDC2 levels after cellular dosing

SMILES: COC(=O)CNC(=O)Cc1csc(-c2ccc3cccc(OCCN4CCN(C(=O)C[C@@H]5N=C(c6ccc(Cl)cc6)c6c(sc(C)c6C)-n6c(C)nnc65)CC4)c3c2)n1 [SJ46420]
- KLHDC2 level, Western blot quantification (DMSO = 100) (Fig S6g, SKBR3 Time course, 5 uM, 4hr): 118.1 and 127.234
- KLHDC2 level, Western blot quantification (DMSO = 100) (Fig S6g, SKBR3 Time course, 5 uM, 8hr): 125.323 and 132.123
- KLHDC2 level, Western blot quantification (DMSO = 100) (Fig S6i, SKBR3, 5uM): 108.759 and 120.207
- KLHDC2 level, Western blot quantification (DMSO = 100) (Fig S6i, U2OS, 5uM): 115.927 and 106.939
- KLHDC2 level, Western blot quantification (DMSO = 100) (Fig S6h, U2OS Time course, 5uM, 2hr): 102.827 and 100.635
- KLHDC2 level, Western blot quantification (DMSO = 100) (Fig S6h, U2OS Time course, 5uM, 4hr): 116.419 and 128.136
- KLHDC2 level, Western blot quantification (DMSO = 100) (Fig S6h, U2OS Time course, 5uM, 8hr): 157.536 and 145.235
- KLHDC2 level, Western blot quantification (DMSO = 100) (Fig S6h, U2OS Time course, 5uM, 24hr): 121.407 and 133.135
- KLHDC2 level, Western blot quantification (DMSO = 100) (Fig S6d, U2OS KO/rescue Dose Response, 0.156 uM): 140 and 155
- KLHDC2 level, Western blot quantification (DMSO = 100) (Fig S6d, U2OS KO/rescue Dose Response, 0.313 uM): 192 and 220
- KLHDC2 level, Western blot quantification (DMSO = 100) (Fig S6d, U2OS KO/rescue Dose Response, 0.625 uM): 253 and 275
- KLHDC2 level, Western blot quantification (DMSO = 100) (Fig S6d, U2OS KO/rescue Dose Response, 1.25 uM): 345 and 380
- KLHDC2 level, Western blot quantification (DMSO = 100) (Fig S6d, U2OS KO/rescue Dose Response, 2.5 uM): 540 and 580
- KLHDC2 level, Western blot quantification (DMSO = 100) (Fig S6d, U2OS KO/rescue Dose Response, 5 uM): 581 and 620
- KLHDC2 level relative to DMSO (100%) (MDA-MB-468, 2.5µM, 24 h, Fig S6b): 158 +/- 1.9%
- KLHDC2 level relative to DMSO (100%) (MDA-MB-468, 5µM, 24 h, Fig S6b): 172 +/- 4.4%
- KLHDC2 level relative to DMSO (100%) (MDA-MB-468, 10µM, 24 h, Fig S6b): 195 +/- 7.2%
- KLHDC2 level relative to DMSO (100%) (PC3, 0.16µM, 24 h, Fig S6e): 65 +/- 9.7%
- KLHDC2 level relative to DMSO (100%) (PC3, 0.31µM, 24 h, Fig S6e): 68 +/- 8.9%
- KLHDC2 level relative to DMSO (100%) (PC3, 0.63µM, 24 h, Fig S6e): 43 +/- 15%
- KLHDC2 level relative to DMSO (100%) (PC3, 1.3µM, 24 h, Fig S6e): 48 +/- 8.5%
- KLHDC2 level relative to DMSO (100%) (PC3, 2.5µM, 24 h, Fig S6e): 50 +/- 8.6%
- KLHDC2 level relative to DMSO (100%) (PC3, 5µM, 24 h, Fig S6e): 49 +/- 6.1%
- KLHDC2 level relative to DMSO (100%) (PC3, 10µM, 24 h, Fig S6e): 40 +/- 7.2%
- KLHDC2 level relative to DMSO (100%) (SKBR3, 1µM, 2hr, Fig S6g): 98 +/- 2.6%
- KLHDC2 level relative to DMSO (100%) (SKBR3, 1µM, 4hr, Fig S6g): 101 +/- 4.6%
- KLHDC2 level relative to DMSO (100%) (SKBR3, 5µM, 2hr, Fig S6g): 106 +/- 5.8%
- KLHDC2 level relative to DMSO (100%) (SKBR3, 5µM, 4hr, Fig S6g): 122 +/- 6.3%
- KLHDC2 level relative to DMSO (100%) (SKBR3, 5µM, 8hr, Fig S6g): 129 +/- 4.7%
- KLHDC2 level relative to DMSO (100%) (U2OS DC2KO (KLHDC2 knockout), 5µM, 24 h, Fig 6b): 0 +/- 0%
- KLHDC2 level relative to DMSO (100%) (U2OS KO/Rescue, 0.16µM, 24 h, Fig S6d): 146 +/- 12%
- KLHDC2 level relative to DMSO (100%) (U2OS KO/Rescue, 0.31µM, 24 h, Fig S6d): 205 +/- 21%
- KLHDC2 level relative to DMSO (100%) (U2OS KO/Rescue, 0.63µM, 24 h, Fig S6d): 264 +/- 16%
- KLHDC2 level relative to DMSO (100%) (U2OS KO/Rescue, 1µM + co-dosing 1µM MLN4924, 24 h, Fig 6d): 4170 +/- 238%
- KLHDC2 level relative to DMSO (100%) (U2OS KO/Rescue, 1µM, 24 h, Fig 6c): 407 +/- 47%
- KLHDC2 level relative to DMSO (100%) (U2OS KO/Rescue, 1µM, 24 h, Fig 6d): 1460 +/- 196%
- KLHDC2 level relative to DMSO (100%) (U2OS KO/Rescue, 1.3µM, 24 h, Fig S6d): 362 +/- 25%
- KLHDC2 level relative to DMSO (100%) (U2OS KO/Rescue, 2.5µM, 24 h, Fig S6d): 559 +/- 29%
- KLHDC2 level relative to DMSO (100%) (U2OS KO/Rescue, 5µM, 24 h, Fig S6d): 600 +/- 32%
- KLHDC2 level relative to DMSO (100%) (U2OS KO/Rescue, concentration not printed (line after 5µM), 24 h, Fig S6d): 710 +/- 67%
- KLHDC2 level relative to DMSO (100%) (U2OS, 5µM, 2hr, Fig S6h): 101 +/- 1.9%
- KLHDC2 level relative to DMSO (100%) (U2OS, 5µM, 4hr, Fig S6h): 122+/- 8.2%
- KLHDC2 level relative to DMSO (100%) (U2OS, 5µM, 8hr, Fig S6i): 111 +/- 6.4%
- KLHDC2 level relative to DMSO (100%) (U2OS, 5µM, 8hr, Fig S6h): 151 +/- 8.8%
- KLHDC2 level relative to DMSO (100%) (U2OS, 5µM, 24hr, Fig S6h): 127 +/- 8.2%
